Laboratory results published in publication PMC11243327, “Design, Synthesis, Antitumor, and Antiplasmodial Evaluation of New 7-Chloroquinoline–Benzimidazole Hybrids” (Molecules, 2024).
Where two headings read alike, the source gives them in different places.

Experiments:
[1] = test system: CaCo-2 (human colorectal adenocarcinoma); conditions: previously published result, cited from earlier work
[2] = test system: HeLa (human cervical adenocarcinoma); conditions: previously published result, cited from earlier work
HuT78 (T-cell lymphoma) [3] = test system: HuT78 (T-cell lymphoma); parameters: method as in PMID 36677600; conditions: previously published result, ref [19]; cited from earlier work
[4] = test system: THP-1 (acute monocytic leukemia); parameters: method as in PMID 36677600; conditions: previously published result, ref [19]; cited from earlier work
[5] = test system: HL-60 (acute promyelocytic leukemia); parameters: method as in PMID 36677600; conditions: previously published result, ref [19]; cited from earlier work
[6] = test system: MRC-5 (human fetal lung fibroblasts); parameters: method as in PMID 36677600; conditions: previously published result, ref [19]; cited from earlier work
[7] = test system: THP-1 (acute monocytic leukemia); assay: Antiproliferative MTT assay, THP-1; type: cell-based, human; conditions: Homo sapiens, THP-1, 72 h, mean ± SD of three experiments
Method: (§1) The effect of the new synthesized compounds was tested on five human tumor cell lines, HeLa (human cervical adenocarcinoma; from ATCC), CaCo-2 (human colorectal adenocarcinoma), HL-60 (acute promyelocytic leukemia), HuT78 (T-cell lymphoma), and THP-1 (acute monocytic leukemia), as well as one non-tumor cell line, MRC-5 (human fetal lung fibroblasts). The MRC-5 cells were used between 24 and 26 passages. The cells were cultured in two different types of media: DMEM (Gibco Thermo Fisher Scinetific Inc., Runcorn, UK) and RPMI 1640 (Gibco, Thermo Fisher Scinetific Inc., UK). Both media were supplemented with 2 mM glutamine, fetal bovine serum (10%; heat inactivated), and antibiotics (100 U penicillin and 0.1 mg streptomycin). RPMI 1640 was additionally supplemented with 10 mM HEPES and 1 mM sodium pyruvate. Cells growing in a monolayer were cultured in DMEM, while cells growing in suspension were cultured in RPMI 1640. Cells were grown in humidified atmosphere under the conditions of 37 °C/5% CO2 gas in a CO2 incubator (IGO 150 CELLlife^TM, JOUAN, Thermo Fisher Scientific, Waltham, MA, USA).
(§2) Growth-inhibitory activity was assessed using a slightly modified procedure based on the National Cancer Institute’s protocol. Briefly, cells were seeded in 96-well microtiter plates and incubated for 24 h. They were then treated with 10^−7 to 10^−4 M concentrations of the tested compounds for an additional 72 h. After the treatment period, the effects of the tested compounds on the growth rate of the cells were examined using the MTT assay. Absorbance was measured at 595 nm using a microplate reader. The IC50 value, which represents a 50% inhibition of cell growth, and QC calculation were performed using the GraphPadPrism software (La Jolla, USA), v. 5.03. and Excel software, Office 365. The selectivity index was calculated according to the following formula: SI=IC50 value of normal cell line/IC50 value of cancer cell line
(§3) The effect of each concentration was analyzed by plotting the logarithm of the concentration of the evaluated compound against the corresponding percentage inhibition value using least squares.

[8] = test system: HL-60 (acute promyelocytic leukemia); assay: Antiproliferative MTT assay, HL-60; type: cell-based, human; conditions: Homo sapiens, HL-60, 72 h, mean ± SD of three experiments
Method: as §1, §2, §3

[9] = test system: P. falciparum 3D7 (CQ-susceptible), erythrocytic stage; assay: Antiplasmodial HRP2 assay, Pf3D7; type: cell-based, Plasmodium falciparum; conditions: Plasmodium falciparum, 3D7, 72 h; chloroquine-sensitive strain, three days incubation, HRP2-ELISA, mean ± SD, n ≥ 2; read-out: IC50 Pf3D7
Method: (§4) Method used to evaluate the antiplasmodial activity of quinoline–benzimidazole hybrids against two P. falciparum strains, chloroquine-sensitive (Pf3D7) and chloroquine-resistant (PfDd2), was previously described. […] Chloroquine was used as a positive control.
(§5) In brief, 96-well plates were pre-coated with the tested compounds at 1:3 dilution before ring-stage parasites were added to the complete culture medium at a hematocrit of 1.5% and a parasitemia of 0.05%. […] All compounds were analyzed in duplicate in at least two independent experiments. The IC50 was determined by nonlinear regression analysis of the logarithmic concentration-response curves using the drc package v3.0-1 of R v4.1.0 [56].

[10] = test system: MRC-5 (human fetal lung fibroblasts); assay: Antiproliferative MTT assay, MRC-5; type: cell-based; conditions: Homo sapiens, MRC5, non-tumor cell line, 72 h, mean ± SD of three experiments
Method: as §1, §2, §3

[11] = test system: P. falciparum Dd2 (multiresistant), erythrocytic stage; assay: Antiplasmodial HRP2 assay, PfDd2; type: cell-based, Plasmodium falciparum; conditions: Plasmodium falciparum, DD2, 72 h; chloroquine-resistant strain, three days incubation, HRP2-ELISA, mean ± SD, n ≥ 2; read-out: IC50 PfDd2
Method: as §4, §5

HuT78 (T-cell lymphoma) [12] = assay: Antiproliferative MTT assay, Hut78; type: cell-based, human; conditions: Homo sapiens, HuT78, 72 h, mean ± SD of three experiments
Method: as §1, §2, §3

[13] = test system: CaCo-2 (human colorectal adenocarcinoma); assay: Antiproliferative MTT assay, CaCo-2; type: cell-based; conditions: Homo sapiens, Caco-2, 72 h, mean ± SD of three experiments
Method: as §1, §2, §3

[14] = Antiproliferative MTT assay, whole panel of cell lines; type: cell-based; conditions: human, range over the cell lines tested, read-out: IC50 (cytotoxicity) across non-tumor and tumor cell lines
Method: as §1, with “Cells growing in a monolayer were cultured in DMEM, while cells growing in suspension were cultured in RPMI 1640. Cells were grown in humidified atmosphere under the conditions of 37 °C/5% CO2 gas in a CO2 incubator (IGO 150 CELLlife^TM, JOUAN, Thermo Fisher Scientific, Waltham, MA, USA).” left out
Growth-inhibitory activity was assessed using a slightly modified procedure based on the National Cancer Institute’s protocol. […] Absorbance was measured at 595 nm using a microplate reader. […] The selectivity index was calculated according to the following formula: SI=IC50 value of normal cell line/IC50 value of cancer cell line
as §3

[15] = test system: HeLa (human cervical adenocarcinoma); assay: Antiproliferative MTT assay, HeLa; type: cell-based; conditions: Homo sapiens, HeLa, 72 h, mean ± SD of three experiments
Method: as §1, §2, §3

SMILES	IC50 ([1]; ref [19]) [nM]	IC50 ([2]; ref [19]) [nM]	IC50 (HuT78 (T-cell lymphoma) [3]) [nM]	IC50 [4] [nM]	IC50 [5] [nM]	IC50 [6] [nM]	IC50 [7] [nM]	IC50 ([1]; ref [18]) [nM]	IC50 [8] [nM]	IC50 ([2]; ref [18]) [nM]	IC50 [9] [nM]	IC50 [10] [nM]	IC50 [11] [nM]	IC50 (HuT78 (T-cell lymphoma) [12]) [nM]	IC50 [13] [nM]	IC50 at 72 h [14] [nM]	IC50 [15] [nM]	melting point
O=c1[nH]cc(F)c(=O)[nH]1 [Compound 5-FU, 5-fluorouracil]	5900	8200	> 100000	> 100000	76400	54100												
N=C(NC1CCCC1)c1ccc2nc(-c3ccc(OCCNc4ccnc5cc(Cl)ccc45)cc3)[nH]c2c1 [Compound 10d]							> 100000	> 100000	> 100000	> 100000	58.5 ± 5.9	99200 ± 8300	36.9 ± 17.7	92000 ± 6100				
COc1cc(-c2nc3ccc(C(=N)NC4CCCC4)cc3[nH]2)ccc1OCCCNc1ccnc2cc(Cl)ccc12 [Compound 15d]							29600 ± 300		19500 ± 1100		28.7 ± 9.4	95200 ± 9700	22.9 ± 4.3	12800 ± 5500	> 100000	12800 to 100000	> 100000	
COc1ccc2nc(-c3ccc(OCCCNc4ccnc5cc(Cl)ccc45)c(Br)c3)[nH]c2c1 [Compound 14c, N-{[2-bromo-4-(5(6)-methoxy-1H-benzo[d]imidazole-2-yl)phenoxy]propyl}-7-chloroquinolin-4-amine]							5200 ± 1800		300 ± 100		11.4 ± 4	400 ± 100	11.8 ± 3.2	600 ± 100	1600 ± 900		800 ± 700	230 °C (dec.)
Clc1ccc2c(NCCCOc3ccc(-c4nc5ccccc5[nH]4)cc3)ccnc2c1 [Compound 13a]							3000 ± 800		400 ± 200		2.6 ± 0.7	300 ± 200	4.8 ± 0.3	1600 ± 800	1100 ± 400		3000 ± 2300	200 to 202 °C
Clc1ccc2c(NCCOc3ccc(-c4nc5ccccc5[nH]4)cc3)ccnc2c1 [Compound 10a]							2400 ± 200		1300 ± 900		2.7 ± 0.2	3100 ± 300	3.3 ± 0.1	2800 ± 500	6100 ± 4900		3400 ± 500	171 to 173 °C
COc1ccc2nc(-c3ccc(OCCNc4ccnc5cc(Cl)ccc45)c(OC)c3)[nH]c2c1 [Compound 12c, 7-chloro-N-{[4-(5(6)-methoxy-benzo[d]imidazole-2-yl)-2-methoxyphenoxy]ethyl}quinolin-4-amine]							3100 ± 800		200		9.7 ± 0.2	1100 ± 800	15.4 ± 2	2400 ± 1100	2100 ± 300		2700 ± 200	218 to 219 °C
Clc1ccc2c(NCCOc3ccc(-c4nc5ccccc5[nH]4)cc3Br)ccnc2c1 [Compound 11a, N-{2-[4-(1H-benzo[d]imidazole-2-yl)-2-bromophenoxy]ethyl}-7-chloroquinolin-4-amine]							4900 ± 7300		300 ± 300		36.9 ± 1.5	2200 ± 800	8.7 ± 3.4	2400 ± 600	2100 ± 600		2600 ± 200	226 to 228 °C
COc1cc(-c2nc3ccc(Cl)cc3[nH]2)ccc1OCCNc1ccnc2cc(Cl)ccc12 [Compound 12b, 7-chloro-N-{[4-(5(6)-chloro-benzo[d]imidazole-2-yl)-2-methoxyphenoxy]ethyl}quinolin-4-amine]							6100 ± 6900		3300 ± 1100		11.1 ± 0.3	3000 ± 1600	21.5 ± 2.5	3700 ± 5200	4700 ± 4000		5600 ± 1300	222 °C
COc1cc(-c2nc3ccccc3[nH]2)ccc1OCCCNc1ccnc2cc(Cl)ccc12 [Compound 15a, N-{[4-(1H-benzo[d]imidazole-2-yl)-2-methoxyphenoxy]propyl}-7-chloroquinolin-4-amine]							2200 ± 500		400 ± 100		4.4 ± 0.3	300 ± 100	11.2 ± 0.5	1500 ± 300	800 ± 100		400 ± 100	179 to 181 °C
COc1cc(-c2nc3ccc(Cl)cc3[nH]2)ccc1OCCCNc1ccnc2cc(Cl)ccc12 [Compound 15b, 7-chloro-N-{[4-(5(6)-chloro-benzo[d]imidazole-2-yl)-2-methoxyphenoxy]propyl}quinolin-4-amine]							2500 ± 300		200 ± 100		4.7 ± 1.5	300	5.2 ± 0.5	700 ± 400	1100 ± 600		300 ± 100	190 to 192 °C
COc1ccc2nc(-c3ccc(OCCNc4ccnc5cc(Cl)ccc45)cc3)[nH]c2c1 [Compound 10c, 7-chloro-N-{2-[4-(5(6)-methoxy-1H-benzo[d]imidazole-2-yl)phenoxy]ethyl}quinolin-4-amine]							3800 ± 400		1800 ± 500		6.8 ± 1.8	4900 ± 1700	10.1 ± 5	2300 ± 800	1700 ± 100		2600 ± 400	248 °C (dec.)
COc1ccc2nc(-c3ccc(OCCNc4ccnc5cc(Cl)ccc45)c(Br)c3)[nH]c2c1 [Compound 11c, N-{[2-bromo-4-(5(6)-methoxy-1H-benzo[d]imidazole-2-yl)phenoxy]ethyl}-7-chloroquinolin-4-amine]							3500 ± 7300		2200 ± 400		19.7 ± 4.2	5300 ± 2400	28 ± 0.6	3000 ± 1100	1500 ± 300		2500 ± 400	208 to 210 °C
